Measurements taken from patent publication US9510596B2, “Binary pesticidal and fungicidal mixtures” (BAYER CROPSCIENCE AG, priority 2012, dated 2016).

Test system: Phakopsora pachyrhizi
Experiment: Phakopsora test (soybean)/seed treatment
Assay type: in vivo
Conditions: greenhouse, infected leaf area per plant
Procedure: The test is performed under greenhouse conditions.
Soy bean seeds, treated with the active compound or compound combinations, solved in N-methyl-2-pyrrolidon and diluted with water to the desired dosages, were sown in 6*6 cm pots containing 4 cm of a 1:1 mix of steamed field soil and sand.
The plants were grown at 22° C. and 90% relative humidity in a greenhouse chamber. 21 days old plants were inoculated with an aqueous spore suspension of the causal agent of soybean rust (Phakopsora pachyrhizi) and stay for 24 h without light in an incubation cabinet at approximately 24° C. and a relative atmospheric humidity of 95%. The plants remain in the incubation cabinet at approximately 24° C. and a relative atmospheric humidity of approximately 80% and a day/night interval of 12 h.
Assessment consisted of evaluation of infected leaf area per plant. 0% means an efficacy which corresponds to that of the control, while an efficacy of 100% means that no disease is observed.

In the case of CNC(=O)c1cc(C#N)cc(C)c1NC(=O)c1cc(Br)nn1-c1ncccc1Cl [2.2, Cyantraniliprole, reference compound], the “Efficacy in % found*” value (application rate 0.5 ppm a.i.) is reported as 0%.

In the case of CNC(=O)c1cc(C#N)cc(C)c1NC(=O)c1cc(Cn2nnc(C(F)(F)F)n2)nn1-c1ncccc1Cl [2.5, 1-(3-chloropyridin-2-yl)-N-[4-cyano-2-methyl-6-(methylcarbamoyl)phenyl]-3-{[5-(trifluoromethyl)-2H-tetrazol-2-yl]methyl}-1H-pyrazole-5-carboxamide], the “Efficacy in % found*” value (application rate 2.5 ppm a.i.) is reported as 13%.

CC1CC(C)(C)c2cccc(NC(=O)c3cn(C)nc3C(F)F)c21 (stereo not drawn) [(I-1), 3-(difluoromethyl)-1-methyl-N-(1,1,3-trimethyl-2,3-dihydro-1H-inden-4-yl)-1H-pyrazole-4-carboxamide] was tested, and the “Efficacy in % found*” value (application rate 25 ppm a.i., 0% = control, 100% = no disease) was 25%.
